Data published in patent publication US20020137929A1, “1 - (3-heterocyclylphenyl) isothiourea, -isourea, -guanidine and -amidine herbicidal agents” (Intellectual Property Department, BASF Aktiengesellschaft, priority 1998, published 2002).

Experiments:
[1] = system: GALAP (Galium); assay: Preemergence herbicidal evaluation; type: in vivo, Galium aparine; conditions: rated 4-5 weeks after treatment
Summary of the method: (§1)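 Sown cups got a single aqueous acetone spray of test compound (roughly 0.0156–0.500 kg/ha) before seedlings emerged. Evaluation, 4–5 weeks on, used a 0–9 visual scale covering plant stand, vigor, size, malformation, chlorosis and general appearance compared with controls.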

[2] = system: AMBEL (Ragweed, Common); assay: Postemergence herbicidal evaluation; type: in vivo, Ambrosia artemisifolia; conditions: postemergence
Summary of the method: (§2)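 Rate range approx. 0.0156–0.500 kg/ha. Foliar application at 40 psi to ~2-week seedlings; surfactant 0.5% TWEEN 20 in 50/50 acetone/water. Evaluation 4–5 wk post-treatment by 0–9 visual injury score, means of replicate tests.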

[3] = system: TRZAWR (Wheat, Winter, cv Riband); assay: Postemergence herbicidal evaluation; type: in vivo, Triticum aestivum; conditions: postemergence
Summary of the method: as §2

[4] = system: SAGPY (Arrowhead (Pygmaea)); assay: Preemergence weed control under flooded paddy conditions; type: in vivo, Sagittaria pygmaea; conditions: rated 3-4 weeks after treatment
Summary of the method: (§3)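 Greenhouse paddy assay. Acetone/water (50/50 v/v) solutions dosed into flood water, equivalent to about 0.0313 to 0.500 kg/ha active ingredient, over seeds planted 0.5 cm deep in silt loam. Score: 0-9 visual, based on stand, vigor, malformation, size and chlorosis, 3 to 4 weeks after treatment.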

[5] = system: SETVI (Foxtail, Green); assay: Preemergence herbicidal evaluation; type: in vivo, Setaria viridis; conditions: rated 4-5 weeks after treatment
Summary of the method: as §1

[6] = system: ECHORC (Watergrass (Calif.)); assay: Postemergence weed control under flooded paddy conditions; type: in vivo, Echinochloa oryzoides; conditions: postemergence weeds, 3-4 weeks after treatment
Summary of the method: (§4)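 Injury ratings (0–9 scale covering stand, vigor, malformation, size, chlorosis and overall appearance versus control) were made three to four weeks after treatment. Test material, about 0.0313 to 0.500 kg/ha a.i. in 50/50 v/v aqueous/acetone, was added to flood water 1.5 to 3 cm deep over 3 to 5 cm weeds and 1.5 to 2.5 leaf rice.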

[7] = system: GALAP (Galium); assay: Postemergence herbicidal evaluation; type: in vivo, Galium aparine; conditions: postemergence
Summary of the method: as §2

[8] = system: CASOB (Sicklepod); assay: Postemergence herbicidal evaluation; type: in vivo, Cassia obtusifolia; conditions: postemergence
Summary of the method: as §2

[9] = system: SAGPY (Arrowhead (Pygmaea)); assay: Postemergence weed control under flooded paddy conditions; type: in vivo, Sagittaria pygmaea; conditions: postemergence weeds, 3-4 weeks after treatment
Summary of the method: as §4

[10] = system: GLXMAW (Soybean, Williams); assay: Postemergence herbicidal evaluation; type: in vivo, Glycine max, (L.) Merr. cv Williams; conditions: postemergence
Summary of the method: as §2

[11] = system: MOOVA (Monochoria); assay: Preemergence weed control under flooded paddy conditions; type: in vivo, Monochoria vaginalis; conditions: rated 3-4 weeks after treatment
Summary of the method: as §3

[12] = system: ORYSAT (Rice, Tebonnet); assay: Preemergence herbicidal evaluation; type: in vivo, Oryza sativa, (L.) Tebonnet; conditions: rated 4-5 weeks after treatment
Summary of the method: as §1

[13] = system: CYPSE (Flatsedge); assay: Preemergence weed control under flooded paddy conditions; type: in vivo, Cyperus serotinus; conditions: rated 3-4 weeks after treatment
Summary of the method: as §3

[14] = system: ECHORC (Watergrass (Calif.)); assay: as above; type: in vivo, Echinochloa oryzoides; conditions: rated 3-4 weeks after treatment
Summary of the method: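 Herbicidal effect is scored visually on a 0-9 scale against an untreated control, three to four weeks after compounds are pipetted into the flood water (1.5 to 3 cm deep) over seeds planted in silt loam at 0.5 cm depth. Rates: about 0.0313 to 0.500 kg/ha.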

SMILES: CN(C)N1C(=O)CSC1=Nc1cc(-n2c(=O)cc(C(F)(F)F)n(C)c2=O)c(F)cc1Cl [Compound 23, 3-{4-Chloro-5-{[3-(dimethylamino)-4-oxo-2-thiazolidinylidine]amino}-2-fluorophenyl}-1-methyl-6-(trifluoromethyl)-2,4(1H,3H)-pyrimidinedione]
- GALAP preemergence herbicidal rating ([1]; rate 0.0156 kg/ha): 0.0
- GALAP preemergence herbicidal rating ([1]; rate 0.0313 kg/ha): 1.0
- GALAP preemergence herbicidal rating ([1]; rate 0.0625 kg/ha): 1.0
- GALAP preemergence herbicidal rating ([1]; rate 0.1250 kg/ha): 0.0
- GALAP preemergence herbicidal rating ([1]; rate 0.2500 kg/ha): 2.0
- AMBEL herbicidal rating ([2]; rate 0.0158 kg/ha): 2.0
- AMBEL herbicidal rating ([2]; rate 0.0315 kg/ha): 4.0
- AMBEL herbicidal rating ([2]; rate 0.0630 kg/ha): 7.0
- TRZAWR herbicidal rating ([3]; rate 0.0158 kg/ha): 2.5
- TRZAWR herbicidal rating ([3]; rate 0.0315 kg/ha): 4.0
- TRZAWR herbicidal rating ([3]; rate 0.0630 kg/ha): 5.0
- Herbicidal rating SAGPY ([4]; 0.1160 kg/ha): 0.0
- Herbicidal rating SAGPY ([4]; 0.2310 kg/ha): 0.0
- Herbicidal rating SAGPY ([4]; 0.4630 kg/ha): 3.0
- SETVI preemergence herbicidal rating ([5]; rate 0.0156 kg/ha): 1.0
- SETVI preemergence herbicidal rating ([5]; rate 0.0313 kg/ha): 1.0
- SETVI preemergence herbicidal rating ([5]; rate 0.0625 kg/ha): 5.0
- SETVI preemergence herbicidal rating ([5]; rate 0.1250 kg/ha): 5.0
- SETVI preemergence herbicidal rating ([5]; rate 0.2500 kg/ha): 6.0
- Herbicidal rating ECHORC ([6]; rate 0.1160 kg/ha): 4.0
- Herbicidal rating ECHORC ([6]; rate 0.2310 kg/ha): 4.0
- Herbicidal rating ECHORC ([6]; rate 0.4630 kg/ha): 4.0
- GALAP herbicidal rating ([7]; rate 0.0158 kg/ha): 3.0
- GALAP herbicidal rating ([7]; rate 0.0315 kg/ha): 7.0
- GALAP herbicidal rating ([7]; rate 0.0630 kg/ha): 9.0
- CASOB herbicidal rating ([8]; rate 0.0158 kg/ha): 0.0
- CASOB herbicidal rating ([8]; rate 0.0315 kg/ha): 1.0
- CASOB herbicidal rating ([8]; rate 0.0630 kg/ha): 3.0
- Herbicidal rating SAGPY ([9]; rate 0.1160 kg/ha): 0.0
- Herbicidal rating SAGPY ([9]; rate 0.2310 kg/ha): 0.0
- Herbicidal rating SAGPY ([9]; rate 0.4630 kg/ha): 3.0
- GLXMAW herbicidal rating ([10]; rate 0.0158 kg/ha): 3.0
- GLXMAW herbicidal rating ([10]; rate 0.0315 kg/ha): 3.5
- GLXMAW herbicidal rating ([10]; rate 0.0630 kg/ha): 5.0
- Herbicidal rating MOOVA ([11]; 0.1160 kg/ha): 9.0
- Herbicidal rating MOOVA ([11]; 0.2310 kg/ha): 9.0
- Herbicidal rating MOOVA ([11]; 0.4630 kg/ha): 9.0
- ORYSAT preemergence herbicidal rating ([12]; rate 0.0156 kg/ha): 0.0
- ORYSAT preemergence herbicidal rating ([12]; rate 0.0313 kg/ha): 0.0
- ORYSAT preemergence herbicidal rating ([12]; rate 0.0625 kg/ha): 1.0
- ORYSAT preemergence herbicidal rating ([12]; rate 0.1250 kg/ha): 1.0
- ORYSAT preemergence herbicidal rating ([12]; rate 0.2500 kg/ha): 7.0
- Herbicidal rating CYPSE ([13]; 0.1160 kg/ha): 0.0
- Herbicidal rating CYPSE ([13]; 0.2310 kg/ha): 0.0
- Herbicidal rating CYPSE ([13]; 0.4630 kg/ha): 0.0
- Herbicidal rating ECHORC ([14]; 0.1160 kg/ha): 4.0
- Herbicidal rating ECHORC ([14]; 0.2310 kg/ha): 4.0
- Herbicidal rating ECHORC ([14]; 0.4630 kg/ha): 4.0
